Results from patent US11377429B2, “Benzothia(di)azepine compounds and their use as bile acid modulators” (Albireo AB, priority 2020, dated 2022).

Target: T1, Human LBAT (Homo sapiens, UniProt Q14973)
T1 construct: expressed in transfected cells; cultured under Geneticin selection
T1 sequence (Q14973 1-349): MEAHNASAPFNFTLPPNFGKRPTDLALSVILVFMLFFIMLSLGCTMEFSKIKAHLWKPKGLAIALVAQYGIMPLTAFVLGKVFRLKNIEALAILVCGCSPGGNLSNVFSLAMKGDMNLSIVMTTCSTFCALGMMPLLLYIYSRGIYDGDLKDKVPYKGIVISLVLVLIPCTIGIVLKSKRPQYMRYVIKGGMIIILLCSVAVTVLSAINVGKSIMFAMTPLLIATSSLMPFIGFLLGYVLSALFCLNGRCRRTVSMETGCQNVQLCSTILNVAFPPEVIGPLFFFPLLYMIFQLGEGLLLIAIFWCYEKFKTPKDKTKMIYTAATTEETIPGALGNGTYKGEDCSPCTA
Assay: LBAT (h/m) assay, human LBAT-overexpressing cells, 3H-taurocholic acid uptake
Format: cell-based
Settings: read-out: hLBAT IC50
Description: LBAT (h/m) Assay Protocol
20,000 cells (Human or Mouse LBAT-overexpressing cells) were seeded in 96-wells plate (Corning CLS3809) in 100 μL MEM-alpha medium (Gibco 12571-063) supplemented with 10% FBS (Gibco 10438026) containing Geneticin (Gibco 10131-027) (1 mg/mL) and incubated at 37° C. in 5% CO2 for 24 hours. After incubation, media was decanted from the wells and cells were washed two times with 300 μL of basal MEM-alpha medium (FBS-free). After decanting basal MEM-alpha medium each time, plates were tapped against paper towel to ensure maximum removal of residual media. For human LBAT, incubation mix was prepared by adding test inhibitor dilutions (3-fold serial dilution in DMSO (Sigma D2650), 10 points) in MEM-alpha (without FBS) containing 0.3 μM 3H-taurocholic acid (ARC ART-1368) and 7.5 μM cold taurocholic acid (Sigma T4009) (maintaining 0.2% final DMSO concentration). For mouse LBAT, incubation mix was prepared by adding test inhibitor dilutions (3-fold serial dilution in DMSO, 10 points) in MEM-alpha (without FBS) containing 0.3 μM 3H-taurocholic acid and 25 μM cold taurocholic acid maintaining 0.2% final DMSO concentration). 50 μL of incubation mix containing test inhibitors was then added to the wells (in duplicate) and the plates were incubated for 20 minutes in a CO2 incubator at 37° C. After incubation, the reaction was stopped by keeping the plates on ice water mix for 2-3 minutes and then the incubation mix was aspirated completely from the wells. The wells were washed two times with 250 μL of chilled unlabeled 1 mM taurocholic acid dissolved in HEPES (Gibco 15630080)-buffered (10 mM) HBSS (Gibco 14175079) (pH 7.4). The plates were tapped against a paper towel after every wash to ensure maximum removal of blocking buffer.
100 μL of MicroScint-20 (PerkinElmer 6013621) was added to the wells and kept overnight at room temperature before reading the plates in TopCount NXT™ Microplate Scintillation and Luminescence Counter from PerkinElmer under 3H Test protocol (set at 120 seconds reading time per well, with normal plate orientation).
Preparation of Test Compound Dilutions
All test compounds were provided in powder form at room temperature. 10 mM DMSO stocks of the test compounds were prepared, aliquoted and stored at −20° C. From the 10 mM DMSO stock of the compounds, a 3-fold serial dilution in DMSO was prepared to get a total of 10 dilutions of the test compounds. 0.5 μL of this dilution in DMSO was added to 250 μL of FBS-free basal media containing 3H-taurocholic acid and cold taurocholic acid to prepare the incubation mixture.

IC50: 1640 nM
Structure (SMILES): CCCCC1(C)CN(c2ccc(F)cc2)c2cc(SC)c(OCC(O)C(=O)O)cc2S(=O)(=O)C1 (single isomer, unassigned) [1, diastereomer 1]
